Laboratory results from patent US12465050B2, “Compositions comprising a pyridine carboxylate herbicide and protoporphyrinogen oxidase (protox) inhibitor herbicides” (priority 2018, dated 2025).

Tests used:
Assay type in all cases: in vivo
[1] = system: Rumex obtusifolius (broad-leaf dock); assay: Greenhouse postemergence herbicidal effect on RUMOB
Excerpt: (§1) Greenhouse Trial Methodology—Evaluation of Postemergence Herbicidal Effect
(§2) Seeds of the desired test plant species were planted in a 90:10% v/v (volume/volume) mixture of PRO-MIX® BX (Premier Tech Horticulture, Quakertown, Pa., USA) and PROFILE® GREENS GRADE™ (Profile Products LLC, Buffalo Grove, Ill., USA) planting mixture, which typically has a pH of 5.2 to 6.2 and an organic matter content of at least 50 percent, in plastic pots with a surface area of 103.2 square centimeters (cm^2). In some aspects or embodiments, to help ensure good germination and healthy plants, a fungicide treatment and/or other chemical or physical treatment was applied. The plants were grown for 7-36 days (d) in a greenhouse with an approximate 14-hour (h) photoperiod which was maintained at about 23° C. during the day and 22° C. during the night. Nutrients and water were added on a regular basis and supplemental lighting was provided with overhead metal halide 1000-Watt lamps as necessary. The plants were employed for testing when they reached the second or third true leaf stage.
(§3) Emulsifiable concentrates of each of each pyridine carboxylate herbicide (Compound A or Compound B) were prepared at 100 grams acid equivalent per liter (g ae/L). The emulsifiable concentrates also included a safener, cloquintocet mexyl, at 120 grams active ingredient per liter (g ai/L). An aliquot of each emulsifiable concentrate was placed in a 25 mL glass vial and diluted with an aqueous mixture of 1.25% (v/v) ACTIROB® B esterified rapeseed oil (Bayer Crop Science, Research Triangle Park, N.C., USA) or MSO® Concentrate with LECI-TECH® methylated soybean oil (Loveland Products, Loveland, Colo., USA) to obtain concentrated stock solutions at the highest application rate for each herbicide, based upon a 12 milliliter (mL) application volume at a rate of 187 liters per hectare (L/ha). The concentrated stock solutions were further diluted with an aqueous mixture of 1.25% v/v ACTIROB® B or MSO® Concentrate with LECI-TECH® to obtain stock solutions at reduced application rates for each herbicide. Spray solutions of the herbicide combinations (Compound A or Compound B plus PROTOX inhibitor herbicide) were prepared by adding weighed amounts or aliquots of the PROTOX inhibitor herbicides to the stock solutions of Compound A or Compound B to form 12-mL spray solutions in two-way combinations.
(§4) The spray solutions were applied to the plant material with an overhead Mandel track sprayer equipped with 8002E nozzles calibrated to deliver 187 L/ha over an application area of 0.503 square meters (m^2) at a spray height of 18 inches (43 centimeters (cm)) above the average plant canopy. Control plants were sprayed in the same manner with the solvent blank. All pyridine carboxylate herbicide (component a) application rates are given as “g ae/ha” and all PROTOX inhibitor herbicide (component b) application rates are given as “g ai/ha.”
(§5) The treated plants and control plants were placed in a greenhouse as described above and watered by sub-irrigation to prevent wash-off of the test compounds. After 20-22 d, the condition of the test plants as compared with that of the control plants was determined visually and scored on a scale of 0 to 100 percent where 0 corresponds to no injury and 100 corresponds to complete kill.

[2] = system: Setaria faberi (giant foxtail); assay: Greenhouse postemergence herbicidal effect on SETFA
Excerpt: as §1, §2, §3, §4, §5

Avena fatua (wild oat) = assay: Greenhouse postemergence herbicidal effect on AVEFA
Excerpt: as §1, §2
(§6) Emulsifiable concentrates of each of each pyridine carboxylate herbicide (Compound A or Compound B) were prepared at 100 grams acid equivalent per liter (g ae/L). The emulsifiable concentrates also included a safener, cloquintocet mexyl, at 120 grams active ingredient per liter (g ai/L). […]
as §5

[3] = system: Echinochloa crus-galli (barnyard grass); assay: Greenhouse postemergence herbicidal effect on ECHCG
Excerpt: as §1, §2, §6, §5

[4] = system: Abutilon theophrasti (velvetleaf); assay: Greenhouse postemergence herbicidal effect on ABUTH
Excerpt: as §1, §2, §6, §5

[5] = system: Triticum aestivum (spring wheat); assay: Greenhouse postemergence phytotoxicity on crop TRZAS
Excerpt: as §1, §2, §3, §4, §5

[6] = system: Sinapis arvensis (wild mustard); assay: Greenhouse postemergence herbicidal effect on SINAR
Excerpt: as §1, §2, §3, §4, §5

[7] = system: Brassica napus (winter rape); assay: Greenhouse postemergence herbicidal effect on BRSNW
Excerpt: as §1, §2, §3, §4, §5

[8] = system: Capsella bursa-pastoris (shepherd's purse); assay: Greenhouse postemergence herbicidal effect on CAPBP
Excerpt: as §1, §2
as §3, with “combinations. […]” for “combinations.”
as §5

[9] = system: Viola arvensis (field violet); assay: Greenhouse postemergence herbicidal effect on VIOAR
Excerpt: as §1, §2
as §3, with “combinations. […]” for “combinations.”
as §5

[10] = system: Matricaria inodora (scentless chamomile); assay: Greenhouse postemergence herbicidal effect on MATIN
Excerpt: as §1, §2
as §3, with “combinations. […]” for “combinations.”
as §5

[11] = system: Anthemis arvensis (corn chamomile); assay: Greenhouse postemergence herbicidal effect on ANTAR
Excerpt: as §1, §2
as §3, with “combinations. […]” for “combinations.”
as §5

[12] = system: Papaver rhoeas (common poppy); assay: Greenhouse postemergence herbicidal effect on PAPRH
Excerpt: as §1, §2
as §3, with “combinations. […]” for “combinations.”
as §5

[13] = system: Papaver rhoeas (herbicide-resistant poppy); assay: Greenhouse postemergence herbicidal effect on PAPRH-RES
Excerpt: as §1, §2
as §3, with “combinations. […]” for “combinations.”
as §5

[14] = system: Triticum aestivum (winter wheat); assay: Greenhouse postemergence phytotoxicity on crop TRZAW
Excerpt: as §1, §2
as §3, with “combinations. […]” for “combinations.”
as §5

[15] = system: Hordeum vulgare (winter barley); assay: Greenhouse postemergence phytotoxicity on crop HORVW
Excerpt: as §1, §2
as §3, with “combinations. […]” for “combinations.”
as §5

[16] = Compound A 7.5, Saflufenacil 0 g/ha
[17] = Compound A 10, Saflufenacil 0 g/ha
[18] = Compound A 7.5, Oxyfluorfen 0 g/ha
[19] = Compound A 7.5, Pyraclonil 0 g/ha
[20] = Compound A 7.5, Pyraflufen-ethyl 0 g/ha
[21] = Compound A 10, Oxyfluorfen 0 g/ha
[22] = Compound A 10, Pyraclonil 0 g/ha
[23] = Compound A 10, Pyraflufen-ethyl 0 g/ha
[24] = Compound A 15, Oxyfluorfen 0 g/ha

## N#CCOC(=O)c1nc(-c2ccc3cc[nH]c3c2F)c(F)c(N)c1Cl [Compound A, cyanomethyl 4-amino-3-chloro-5-fluoro-6-(7-fluoro-1H-indol-6-yl)pyridine-2-carboxylate]
[1]; Compound A 7.5, Bifenox 0 g/ha
  % visual injury, Obs: 13%
[1]; [16]
  % visual injury, Obs: 20%
[1]; Compound A 10, Bifenox 0 g/ha
  % visual injury, Obs: 8%
[1]; [17]
  % visual injury, Obs: 13%
[2]; Compound A 7.5, Bifenox 0 g/ha
  % visual injury, Obs: 60%
[2]; [16]
  % visual injury, Obs: 78%
[2]; Compound A 10, Bifenox 0 g/ha
  % visual injury, Obs: 78%
[2]; [17]
  % visual injury, Obs: 80%
Avena fatua (wild oat); Compound A 7.5, Bifenox 0 g/ha
  % visual injury, Obs: 0%
Avena fatua (wild oat); Compound A 10, Bifenox 0 g/ha
  % visual injury, Obs: 0%
[3]; Compound A 7.5, Bifenox 0 g/ha
  % visual injury, Obs: 80%
[3]; Compound A 10, Bifenox 0 g/ha
  % visual injury, Obs: 88%
[4]; [16]
  % visual injury, Obs: 68%
[4]; [17]
  % visual injury, Obs: 80%
[5]; Compound A 7.5, Carfentrazone-ethyl 0 g/ha
  % visual injury, Obs: 0%
[5]; [18]
  % visual injury, Obs: 0%
[5]; [19]
  % visual injury, Obs: 0%
[5]; [20]
  % visual injury, Obs: 0%
[5]; [16]
  % visual injury, Obs: 5%
[5]; Compound A 10, Carfentrazone-ethyl 0 g/ha
  % visual injury, Obs: 0%
[5]; [21]
  % visual injury, Obs: 0%
[5]; [22]
  % visual injury, Obs: 0%
[5]; [23]
  % visual injury, Obs: 0%
[5]; [17]
  % visual injury, Obs: 3%
[5]; [24]
  % visual injury, Obs: 0%
[6]; [18]
  % visual injury, Obs: 88%
[6]; [19]
  % visual injury, Obs: 88%
[6]; [20]
  % visual injury, Obs: 83%
[6]; [21]
  % visual injury, Obs: 91%
[6]; [22]
  % visual injury, Obs: 92%
[6]; [23]
  % visual injury, Obs: 88%
[6]; [24]
  % visual injury, Obs: 91%
[7]; [18]
  % visual injury, Obs: 60%
[7]; [20]
  % visual injury, Obs: 35%
[7]; [21]
  % visual injury, Obs: 65%
[7]; [23]
  % visual injury, Obs: 40%
[7]; [24]
  % visual injury, Obs: 73%
[8]; [18]
  % visual injury, Obs: 45%
[8]; [21]
  % visual injury, Obs: 55%
[8]; [24]
  % visual injury, Obs: 55%
[9]; [18]
  % visual injury, Obs: 10%
[9]; [21]
  % visual injury, Obs: 13%
[9]; [24]
  % visual injury, Obs: 10%
[10]; [18]
  % visual injury, Obs: 55%
[10]; [21]
  % visual injury, Obs: 60%
[10]; [24]
  % visual injury, Obs: 83%
[11]; [18]
  % visual injury, Obs: 68%
[11]; [21]
  % visual injury, Obs: 70%
[11]; [24]
  % visual injury, Obs: 88%
[12]; [18]
  % visual injury, Obs: 100%
[12]; [21]
  % visual injury, Obs: 99%
[12]; [24]
  % visual injury, Obs: 100%
[13]; [18]
  % visual injury, Obs: 96%
[13]; [21]
  % visual injury, Obs: 98%
[13]; [24]
  % visual injury, Obs: 100%
[14]; [18]
  % visual injury, Obs: 0%
[14]; [21]
  % visual injury, Obs: 0%
[14]; [24]
  % visual injury, Obs: 0%
[15]; [18]
  % visual injury, Obs: 0%
[15]; [21]
  % visual injury, Obs: 0%
[15]; [24]
  % visual injury, Obs: 0%
